IC50 data for 60 compounds are collected here from patent US20260158017A1, “KIF18A INHIBITOR” (WIGEN BIOMEDICINE TECHNOLOGY (SHANGHAI) CO., LTD., priority 2021, published 2026).

The structures appear in SMILES notation.

T1 sequence (Q8NI77 1-467): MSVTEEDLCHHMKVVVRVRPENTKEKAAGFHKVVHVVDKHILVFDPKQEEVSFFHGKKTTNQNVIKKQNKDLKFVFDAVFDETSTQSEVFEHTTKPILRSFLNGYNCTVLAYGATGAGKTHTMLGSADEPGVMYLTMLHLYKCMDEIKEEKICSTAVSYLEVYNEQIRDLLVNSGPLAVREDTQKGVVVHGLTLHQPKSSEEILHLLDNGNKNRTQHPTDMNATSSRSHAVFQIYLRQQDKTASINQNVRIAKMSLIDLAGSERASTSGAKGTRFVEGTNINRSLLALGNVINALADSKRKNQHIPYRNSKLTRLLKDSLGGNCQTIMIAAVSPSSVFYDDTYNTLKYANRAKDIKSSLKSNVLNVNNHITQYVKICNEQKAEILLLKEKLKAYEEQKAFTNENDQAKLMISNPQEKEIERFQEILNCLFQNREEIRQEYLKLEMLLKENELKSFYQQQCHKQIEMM
T1 sequence (P02550 whole entry partner): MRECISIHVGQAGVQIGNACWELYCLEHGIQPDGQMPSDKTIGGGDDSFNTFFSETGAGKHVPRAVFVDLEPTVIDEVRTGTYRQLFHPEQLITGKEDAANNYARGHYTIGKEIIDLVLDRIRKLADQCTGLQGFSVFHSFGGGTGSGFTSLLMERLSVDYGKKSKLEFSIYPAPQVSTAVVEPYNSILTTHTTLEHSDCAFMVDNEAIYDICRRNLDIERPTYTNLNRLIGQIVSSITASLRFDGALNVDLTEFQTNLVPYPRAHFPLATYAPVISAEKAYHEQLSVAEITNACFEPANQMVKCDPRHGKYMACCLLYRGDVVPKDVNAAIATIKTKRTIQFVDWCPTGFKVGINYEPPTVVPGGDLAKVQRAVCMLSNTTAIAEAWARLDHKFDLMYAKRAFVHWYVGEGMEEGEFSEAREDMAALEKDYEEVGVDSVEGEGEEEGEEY
T1 sequence (P02554 whole entry partner): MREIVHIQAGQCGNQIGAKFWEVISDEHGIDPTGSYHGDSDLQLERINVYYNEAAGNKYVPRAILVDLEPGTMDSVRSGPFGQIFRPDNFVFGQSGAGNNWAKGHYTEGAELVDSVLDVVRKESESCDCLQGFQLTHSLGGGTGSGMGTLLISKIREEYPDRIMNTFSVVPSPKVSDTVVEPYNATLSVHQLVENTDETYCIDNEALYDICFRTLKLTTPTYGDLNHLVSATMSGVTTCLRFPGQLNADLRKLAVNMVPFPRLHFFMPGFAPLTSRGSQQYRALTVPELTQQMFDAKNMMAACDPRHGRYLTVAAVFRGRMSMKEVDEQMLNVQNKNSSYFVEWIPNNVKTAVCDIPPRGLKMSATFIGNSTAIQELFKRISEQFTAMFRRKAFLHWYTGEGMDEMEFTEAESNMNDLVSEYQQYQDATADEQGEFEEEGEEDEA

This assay addresses T1, Recombinant human KIF18A (1-467His-tagged) protein (Homo sapiens, UniProt Q8NI77).
T1 construct: Recombinant human KIF18A (1-467His-tagged) protein; His; made in house
Briefly: KIF18A enzyme assay (microtubule-stimulated ATPase activity, ADP-Glo). In kind it is biochemical. To be noted: 30 nM KIF18A, 75 μM ATP, 30 μg/mL pig microtubules; read-out: Inhibitory activity against KIF18A IC50. Summed up: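 Buffer 15 mM Tris pH 7.5, 10 mM MgCl2, 0.01% Pluronic F-68, 1 μM paclitaxel, 30 μg/mL pig microtubules; reactions at room temperature. IC50 from inhibition relative to DMSO.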
On the technique in general: ADP-Glo turns the ADP formed in a reaction into a luminescent signal.
For the compound `COc1ccc(NC(=O)c2ccc(S(=O)(=O)NCCO)cc2N2CCC3(CC2)CC3)nc1N1CC2CC2C1` (stereo not drawn) [Compound 282], the half-inhibitory concentration (IC50) was at most 0.1 µM.
Next, `COc1ccc(NC(=O)c2ccc(S(=O)(=O)NCCO)cc2N2CCC3(CC2)CC3)nc1NC(C)(C)CO` [Compound 283]: at most 0.1 µM.
Next, `COc1ccc(NC(=O)c2ccc(S(=O)(=O)NCCO)cc2N2CCC3(CC2)CC3)nc1N1CCOCC1` [Compound 284]: at most 0.1 µM.
As for `COc1ccc(NC(=O)c2ccc(S(=O)(=O)N[C@@H](C)CO)cc2N2CCC3(CC2)CC3)nc1N1CCC(F)(F)CC1` [Compound 285], the IC50 was at most 0.1 µM.
As for `COc1ccc(NC(=O)c2ccc(S(=O)(=O)N[C@H](C)CO)cc2N2CCC3(CC2)CC3)nc1N1CCC(F)(F)CC1` [Compound 286], the figure is at most 0.1 µM.
Next, `COc1ccc(NC(=O)c2ccc(S(=O)(=O)N[C@@H](C)CO)cc2N2CCC3(CC2)CC3)nc1N1CCO[C@H](C)C1` [Compound 287]: at most 0.1 µM; `COc1ccc(NC(=O)c2ccc(S(=O)(=O)N[C@H](C)CO)cc2N2CCC3(CC2)CC3)nc1N1CCO[C@H](C)C1` [Compound 288]: at most 0.1 µM.
Next, `COc1ccc(NC(=O)c2cnc(NS(=O)(=O)CCO)cc2N2CCC3(CC2)CC3)nc1N1CCO[C@H](C)C1` [Compound 290]: at most 0.1 µM; `COc1ccc(NC(=O)c2cnc(NS(=O)(=O)CCO)cc2N2CCC3(CC2)CC3)nc1N1CCO[C@@H](C)C1` [Compound 291]: at most 0.1 µM; `COc1ccc(NC(=O)c2cnc(NS(=O)(=O)CCO)cc2N2CCC3(CC2)CC3)nc1N1CC(F)(F)C1` [Compound 292]: at most 0.1 µM.
With `COc1ccc(NC(=O)c2cnc(NS(=O)(=O)CCO)cc2N2CCC3(CC2)CC3)nc1OCCC(F)(F)F` [Compound 293], the IC50 was at most 0.1 µM.
As for `COc1ccc(NC(=O)c2cnc(NS(=O)(=O)CCO)cc2N2CCC3(CC2)CC3)nc1N1CCC2(CC2)C1` [Compound 294], the figure is at most 0.1 µM; as for `COc1ccc(NC(=O)c2cnc(NS(=O)(=O)CCO)cc2N2CCC3(CC2)CC3)nc1OC1CCC1` [Compound 295], at most 0.1 µM; as for `COc1ccc(NC(=O)c2cnc(NS(=O)(=O)CCO)cc2N2CCC3(CC2)CC3)nc1N1CCC(C)(F)C1` (stereo not drawn) [Compound 296], at most 0.1 µM.
As for `COc1ccc(NC(=O)c2cnc(NS(=O)(=O)CCO)cc2N2CCC3(CC2)CC3)nc1N1CCC(F)CC1` [Compound 297], the figure is at most 0.1 µM; as for `COc1ccc(NC(=O)c2cnc(NS(=O)(=O)CCO)cc2N2CCC3(CC2)CC3)nc1N1CC2CC2C1` (stereo not drawn) [Compound 298], at most 0.1 µM.
As for `COc1ccc(NC(=O)c2cnc(NS(=O)(=O)CCO)cc2N2CCC3(CC2)CC3)nc1NC(C)(C)CO` [Compound 299], the figure is at most 0.1 µM.
In the case of `COc1ccc(NC(=O)c2cnc(NS(=O)(=O)CCO)cc2N2CCC3(CC2)CC3)nc1N1CCOCC1` [Compound 300], the half-maximal inhibitory concentration (IC50) was at most 0.1 µM.
Next, `COc1ccc(NC(=O)c2cnc(NS(=O)(=O)[C@@H](C)CO)cc2N2CCC3(CC2)CC3)nc1N1CCC(F)(F)CC1` [Compound 301]: at most 0.1 µM; `COc1ccc(NC(=O)c2cnc(NS(=O)(=O)[C@H](C)CO)cc2N2CCC3(CC2)CC3)nc1N1CCC(F)(F)CC1` [Compound 302]: at most 0.1 µM.
As for `COc1ccc(NC(=O)c2cnc(NS(=O)(=O)[C@@H](C)CO)cc2N2CCC3(CC2)CC3)nc1N1CCO[C@H](C)C1` [Compound 303], the figure is at most 0.1 µM.
As for `COc1ccc(NC(=O)c2cnc(NS(=O)(=O)[C@H](C)CO)cc2N2CCC3(CC2)CC3)nc1N1CCO[C@H](C)C1` [Compound 304], the figure is at most 0.1 µM; as for `COc1ccc(NC(=O)c2cnc(S(=O)(=O)NCCO)cc2N2CCC3(CC2)CC3)nc1N1CCO[C@H](C)C1` [Compound 306], at most 0.1 µM; as for `COc1ccc(NC(=O)c2cnc(S(=O)(=O)NCCO)cc2N2CCC3(CC2)CC3)nc1N1CCO[C@@H](C)C1` [Compound 307], at most 0.1 µM.
On to `COc1ccc(NC(=O)c2cnc(S(=O)(=O)NCCO)cc2N2CCC3(CC2)CC3)nc1N1CC(F)(F)C1` [Compound 308], for which the 50% inhibitory concentration (IC50) is at most 0.1 µM.
Next, `COc1ccc(NC(=O)c2cnc(S(=O)(=O)NCCO)cc2N2CCC3(CC2)CC3)nc1OCCC(F)(F)F` [Compound 309]: at most 0.1 µM.
Next, `COc1ccc(NC(=O)c2cnc(S(=O)(=O)NCCO)cc2N2CCC3(CC2)CC3)nc1N1CCC2(CC2)C1` [Compound 310]: at most 0.1 µM; `COc1ccc(NC(=O)c2cnc(S(=O)(=O)NCCO)cc2N2CCC3(CC2)CC3)nc1OC1CCC1` [Compound 311]: at most 0.1 µM; `COc1ccc(NC(=O)c2cnc(S(=O)(=O)NCCO)cc2N2CCC3(CC2)CC3)nc1N1CCC(C)(F)C1` (stereo not drawn) [Compound 312]: at most 0.1 µM.
Next, `COc1ccc(NC(=O)c2cnc(S(=O)(=O)NCCO)cc2N2CCC3(CC2)CC3)nc1N1CCC(F)CC1` [Compound 313]: at most 0.1 µM.
As to `COc1ccc(NC(=O)c2cnc(S(=O)(=O)NCCO)cc2N2CCC3(CC2)CC3)nc1N1CC2CC2C1` (stereo not drawn) [Compound 314], the concentration for half-maximal inhibition (IC50) is at most 0.1 µM.
Next, `COc1ccc(NC(=O)c2cnc(S(=O)(=O)NCCO)cc2N2CCC3(CC2)CC3)nc1NC(C)(C)CO` [Compound 315]: at most 0.1 µM.
As to `COc1ccc(NC(=O)c2cnc(S(=O)(=O)NCCO)cc2N2CCC3(CC2)CC3)nc1N1CCOCC1` [Compound 316], the IC50 was at most 0.1 µM.
In the case of `COc1ccc(NC(=O)c2cnc(S(=O)(=O)N[C@@H](C)CO)cc2N2CCC3(CC2)CC3)nc1N1CCC(F)(F)CC1` [Compound 317], the IC50 was at most 0.1 µM.
As to `COc1ccc(NC(=O)c2cnc(S(=O)(=O)N[C@H](C)CO)cc2N2CCC3(CC2)CC3)nc1N1CCC(F)(F)CC1` [Compound 318], the 50% inhibitory concentration (IC50) is at most 0.1 µM.
For `COc1ccc(NC(=O)c2cnc(S(=O)(=O)N[C@@H](C)CO)cc2N2CCC3(CC2)CC3)nc1N1CCO[C@H](C)C1` [Compound 319], the IC50 was at most 0.1 µM.
Next, `COc1ccc(NC(=O)c2cnc(S(=O)(=O)N[C@H](C)CO)cc2N2CCC3(CC2)CC3)nc1N1CCO[C@H](C)C1` [Compound 320]: at most 0.1 µM.
Next, `COc1ccc(C(=O)Nc2ccc(NS(=O)(=O)CCO)cc2N2CCC3(CC2)CC3)nc1N1CCO[C@H](C)C1` [Compound 322]: at most 0.1 µM; `COc1ccc(C(=O)Nc2ccc(NS(=O)(=O)CCO)cc2N2CCC3(CC2)CC3)nc1N1CCO[C@@H](C)C1` [Compound 323]: at most 0.1 µM.
As for `COc1ccc(C(=O)Nc2ccc(NS(=O)(=O)CCO)cc2N2CCC3(CC2)CC3)nc1N1CC(F)(F)C1` [Compound 324], the figure is at most 0.1 µM.
Take `COc1ccc(C(=O)Nc2ccc(NS(=O)(=O)CCO)cc2N2CCC3(CC2)CC3)nc1OCCC(F)(F)F` [Compound 325]: the 50% inhibitory concentration (IC50) is at most 0.1 µM.
As for `COc1ccc(C(=O)Nc2ccc(NS(=O)(=O)CCO)cc2N2CCC3(CC2)CC3)nc1N1CCC2(CC2)C1` [Compound 326], the figure is at most 0.1 µM; as for `COc1ccc(C(=O)Nc2ccc(NS(=O)(=O)CCO)cc2N2CCC3(CC2)CC3)nc1OC1CCC1` [Compound 327], at most 0.1 µM.
Next, `COc1ccc(C(=O)Nc2ccc(NS(=O)(=O)CCO)cc2N2CCC3(CC2)CC3)nc1N1CCC(C)(F)C1` (stereo not drawn) [Compound 328]: at most 0.1 µM; `COc1ccc(C(=O)Nc2ccc(NS(=O)(=O)CCO)cc2N2CCC3(CC2)CC3)nc1N1CCC(F)CC1` [Compound 329]: at most 0.1 µM; `COc1ccc(C(=O)Nc2ccc(NS(=O)(=O)CCO)cc2N2CCC3(CC2)CC3)nc1N1CC2CC2C1` (stereo not drawn) [Compound 330]: at most 0.1 µM.
As for `COc1ccc(C(=O)Nc2ccc(NS(=O)(=O)CCO)cc2N2CCC3(CC2)CC3)nc1NC(C)(C)CO` [Compound 331], the figure is at most 0.1 µM; as for `COc1ccc(C(=O)Nc2ccc(NS(=O)(=O)CCO)cc2N2CCC3(CC2)CC3)nc1N1CCOCC1` [Compound 332], at most 0.1 µM; as for `COc1ccc(C(=O)Nc2ccc(NS(=O)(=O)[C@@H](C)CO)cc2N2CCC3(CC2)CC3)nc1N1CCC(F)(F)CC1` [Compound 333], at most 0.1 µM.
On to `COc1ccc(C(=O)Nc2ccc(NS(=O)(=O)[C@H](C)CO)cc2N2CCC3(CC2)CC3)nc1N1CCC(F)(F)CC1` [Compound 334], for which the IC50 was at most 0.1 µM.
Take `COc1ccc(C(=O)Nc2ccc(NS(=O)(=O)[C@@H](C)CO)cc2N2CCC3(CC2)CC3)nc1N1CCO[C@H](C)C1` [Compound 335]: the IC50 is at most 0.1 µM.
Next, `COc1ccc(C(=O)Nc2ccc(NS(=O)(=O)[C@H](C)CO)cc2N2CCC3(CC2)CC3)nc1N1CCO[C@H](C)C1` [Compound 336]: at most 0.1 µM; `COc1ccc(C(=O)Nc2ccc(S(=O)(=O)NCCO)cc2N2CCC3(CC2)CC3)nc1N1CCO[C@H](C)C1` [Compound 338]: at most 0.1 µM.
As for `COc1ccc(C(=O)Nc2ccc(S(=O)(=O)NCCO)cc2N2CCC3(CC2)CC3)nc1N1CCO[C@@H](C)C1` [Compound 339], the figure is at most 0.1 µM; as for `COc1ccc(C(=O)Nc2ccc(S(=O)(=O)NCCO)cc2N2CCC3(CC2)CC3)nc1N1CC(F)(F)C1` [Compound 340], at most 0.1 µM; as for `COc1ccc(C(=O)Nc2ccc(S(=O)(=O)NCCO)cc2N2CCC3(CC2)CC3)nc1OCCC(F)(F)F` [Compound 341], at most 0.1 µM.
As for `COc1ccc(C(=O)Nc2ccc(S(=O)(=O)NCCO)cc2N2CCC3(CC2)CC3)nc1N1CCC2(CC2)C1` [Compound 342], the figure is at most 0.1 µM.
As to `COc1ccc(C(=O)Nc2ccc(S(=O)(=O)NCCO)cc2N2CCC3(CC2)CC3)nc1OC1CCC1` [Compound 343], the IC50 is at most 0.1 µM.
As for `COc1ccc(C(=O)Nc2ccc(S(=O)(=O)NCCO)cc2N2CCC3(CC2)CC3)nc1N1CCC(C)(F)C1` (stereo not drawn) [Compound 344], the figure is at most 0.1 µM; as for `COc1ccc(C(=O)Nc2ccc(S(=O)(=O)NCCO)cc2N2CCC3(CC2)CC3)nc1N1CCC(F)CC1` [Compound 345], at most 0.1 µM.

What is called IC50 is the concentration that gives 50% inhibition.
